Consider 8 compounds from patent US10421760B2, “Pyrrolo[2,3-d]pyrimidine compound or salt thereof” (TAIHO PHARMACEUTICAL CO., LTD., priority 2015, dated 2019).

The term IC50 denotes the concentration needed to halve the response being measured.

Experiment [1] has as its target purified recombinant human JAK3 protein (Homo sapiens (Human), UniProt P52333). The experiment in a line: JAK3 kinase-inhibiting activity (mobility shift, LabChip EZ Reader II). Conditions: ATP 5 μM, 25° C., 80 minutes. Type of experiment: biochemical. The procedure: 3) Measurement of JAK3 Kinase-Inhibiting Activity
The activity of the compound of the present invention to inhibit the activity of JAK3 kinase was measured.
Among materials for the measurement of this inhibiting activity, a substrate peptide and a kinase protein were acquired as follows. As such a substrate peptide, a substrate peptide for QSS Assist JAK3-MSA assay kit (Carna Biosciences, Inc.) was purchased. As such a kinase protein, a purified recombinant human JAK3 protein (Carna Biosciences, Inc.) was purchased.
The method for measuring the inhibiting activity is as follows. First, a serial dilution of the compound of the present invention was prepared by the same method as that described in the above section regarding JAK1. This serial dilution solution (the final concentration of DMSO upon a kinase reaction: 5.0%) or DMSO (final concentration: 5.0%) was mixed with a solution comprising the substrate peptide (final concentration: 1 μM), magnesium chloride (final concentration: 5 mM) and ATP (final concentration: 5 μM) in a buffer for kinase reaction (20 mM HEPES (pH 7.5), 2 mM dithiothreitol and 0.01% Triton X-100). Thereafter, a JAK3 protein was further added to the mixed solution, and the obtained mixture was then incubated at 25° C. for 80 minutes to carry out a kinase reaction. To the reaction solution, EDTA was added to a final concentration of 30 mM, so as to terminate the reaction. After termination of the reaction, the measurement and the data analysis were carried out by the same methods as those described in the above section regarding JAK1.

Experiment [2] concerns human PBMC. The experiment in a line: IL-2-dependent growth of human peripheral blood mononuclear cells (CellTiter-Glo). Type of experiment: cell-based. Conditions: 48 h, IL-2 2 ng/mL stimulation, 2 days. Here is the method: The activity of the compound of the present invention to inhibit the IL-2-dependent growth reaction of human PBMC, which is caused by JAK3, was measured (Arthritis Rheum. 2010; 62(8): 2283-93).
Using a medium comprising 10 μg/mL PHA-M (Sigma) (which is RPMI-1640 (Sigma) comprising 10% human serum type AB (MP Biomedicals)), human PBMC (C.T.L.) (cell density: 1×10^6 cells/mL) was cultured at 37° C. in a culture vessel comprising 5% carbon dioxide for 3 days. Thereafter, the culture was washed with RPMI-1640 four times, and a medium (RPMI-1640 comprising 10% human serum type AB) was then added to the resultant culture to prepare a cell suspension. The cells (1×10^4 cells per well) and the serially diluted compound of the present invention were added to each well of a 96-well U-bottom microplate, and the thus obtained mixture was then cultured at 37° C. in a culture vessel comprising 5% carbon dioxide for 30 minutes. After completion of the culture, recombinant human IL-2 (Peprotech) was added to the culture to a final concentration of 2 ng/mL, and the obtained mixture was then stirred at 37° C. in a culture vessel comprising 5% carbon dioxide for 2 days (1×10^4 cells/100 μl/each well). After completion of the culture, the resultant was left at a room temperature for 30 minutes, and 100 μl of CellTiter-Glo Luminescent Cell Viability Assay (Promega) was then added to the resultant, followed by stirring it. Thereafter, the reaction mixture was left for 10 minutes, and the amount of a luminescence derived from living cells in each well was then measured using a microplate reader (TECAN). The inhibition rate of the present compound to the cell growth caused by IL-2 stimulation was calculated, and the concentration of the compound capable of inhibiting 50% of the cell growth was defined as an IC50 value (nM).

The target of experiment [3] is purified recombinant human JAK2 protein (Homo sapiens (Human), UniProt O60674). Put plainly: JAK2 kinase-inhibiting activity (mobility shift, LabChip EZ Reader II). Type of experiment: biochemical. Conditions: ATP 10 μM, 25° C., 80 minutes. Here is the method:
2) Measurement of JAK2 Kinase-Inhibiting Activity
The activity of the compound of the present invention to inhibit the activity of JAK2 kinase was measured.
Among materials for the measurement of this inhibiting activity, a substrate peptide and a kinase protein were acquired as follows. As such a substrate peptide, FL-Peptide 22 (Perkin Elmer Corp.) was purchased. As such a kinase protein, a purified recombinant human JAK2 protein (Carna Biosciences, Inc.) was purchased.
The method for measuring the inhibiting activity is as follows. First, a serial dilution of the compound of the present invention was prepared by the same method as that described in the above section regarding JAK1. This serial dilution solution (the final concentration of DMSO upon a kinase reaction: 5.0%) or DMSO (final concentration: 5.0%) was mixed with a solution comprising the substrate peptide (final concentration: 1 μM), magnesium chloride (final concentration: 10 mM) and ATP (final concentration: 10 μM) in a buffer for kinase reaction (15 mM Tris (pH 7.5), 2 mM dithiothreitol and 0.01% Tween 20). Thereafter, a JAK2 protein was further added to the mixed solution, and the obtained mixture was then incubated at 25° C. for 80 minutes to carry out a kinase reaction. To the reaction solution, EDTA was added to a final concentration of 30 mM, so as to terminate the reaction. After termination of the reaction, the measurement and the data analysis were carried out by the same methods as those described in the above section regarding JAK1.

Experiment [4] addresses purified recombinant human JAK1 protein (Homo sapiens (Human), UniProt P23458). Put plainly: JAK1 kinase-inhibiting activity (mobility shift, LabChip EZ Reader II). Type of experiment: biochemical. Conditions: ATP 75 μM, 25° C., 120 minutes. The procedure: 1) Measurement of JAK1 Kinase-Inhibiting Activity
The activity of the compound of the present invention to inhibit the activity of JAK1 kinase was measured.
Among materials for the measurement of this inhibiting activity, a substrate peptide and a kinase protein were acquired as follows. As such a substrate peptide, a substrate peptide for QSS Assist JAK1-MSA assay kit (Carna Biosciences, Inc.) was purchased. As such a kinase protein, a purified recombinant human JAK1 protein (Carna Biosciences, Inc.) was purchased.
The method for measuring the inhibiting activity is as follows. First, the compounds of the present invention were each dissolved in dimethyl sulfoxide (DMSO), and a serial dilution was then prepared using DMSO. Subsequently, a serial dilution solution of the compound (the final concentration of DMSO upon a kinase reaction: 5.0%) or DMSO (final concentration: 5.0%) was mixed with a solution comprising the substrate peptide (final concentration: 1 μM), magnesium chloride (final concentration: 5 mM) and ATP (final concentration: 75 μM) in a buffer for kinase reaction (20 mM HEPES (pH 7.5), 2 mM dithiothreitol and 0.01% Triton X-100). Thereafter, a JAK1 protein was further added to the mixed solution, and the obtained mixture was then incubated at 25° C. for 120 minutes to carry out a kinase reaction. To the reaction solution, EDTA was added to a final concentration of 30 mM, so as to terminate the reaction. Finally, using LabChip EZ Reader II (Perkin Elmer Corp.), an unphosphorylated substrate peptide (S) and a phosphorylated peptide (P) were subjected to microchannel capillary electrophoresis, so that the two peptides were separated from each other and were then detected. The amount of a phosphorylation reaction was obtained based on the heights of the peaks of S and P, and the concentration of the compound capable of inhibiting 50% of the phosphorylation reaction was defined as an IC50 value (nM).

The subject of experiment [5] is IL-2-induced IFN-γ production. Put plainly: Mouse IL-2-induced IFN-γ production test. It is filed as in vivo. Conditions: oral 1 mg/kg and 3 mg/kg, serum 3 hours after IL-2, BALB/c mice. The procedure:
The inhibitory activity of the compound of the present invention and the compounds of comparative examples on mouse IL-2-induced IFN-γ production caused by JAK3 was measured (Arthritis Rheum. 2010; 62 (8): 2283-93, Inflammation Research 2015; 64 (1): 41-51).
Seven-week-old male BALB/c mice (Charles River Japan) were divided into five groups (6 mice per group), namely, a vehicle group, a Compound 7 (1 mpk) group, a Compound 7 (3 mpk) group, a Comparative Example 12 (1 mpk) group, and a Comparative Example 12 (3 mpk) group. Compound 7 and the compound of Comparative Example 12 were each administered to the 1 mpk group and the 3 mpk group via oral administration at doses of 1 mg/kg and 3 mg/kg, respectively. […] Three hours after administration of IL-2, blood was collected from all of the five groups, and the IFN-γ concentration in the serum was measured using BD In Vivo Capture Assay for Mouse IFN-γ (BD Biosciences). The relative amount of IFN-γ generated by IL-2 stimulation was calculated according to the following calculation formula: Relative amount of IFN-γ=(IFN-γ concentration of each group)×100/(IFN-γ concentration of vehicle group), and the results are shown in FIG. 1 (mean value±standard error: regarding vs Vehicle, Dunnett test, *: p<0.05, ***: p<0.001; regarding vs Comparative Example 12 (3 mpk), Student t-test, ##: p<0.01).

Sequence of purified recombinant human JAK3 protein (P52333 whole entry): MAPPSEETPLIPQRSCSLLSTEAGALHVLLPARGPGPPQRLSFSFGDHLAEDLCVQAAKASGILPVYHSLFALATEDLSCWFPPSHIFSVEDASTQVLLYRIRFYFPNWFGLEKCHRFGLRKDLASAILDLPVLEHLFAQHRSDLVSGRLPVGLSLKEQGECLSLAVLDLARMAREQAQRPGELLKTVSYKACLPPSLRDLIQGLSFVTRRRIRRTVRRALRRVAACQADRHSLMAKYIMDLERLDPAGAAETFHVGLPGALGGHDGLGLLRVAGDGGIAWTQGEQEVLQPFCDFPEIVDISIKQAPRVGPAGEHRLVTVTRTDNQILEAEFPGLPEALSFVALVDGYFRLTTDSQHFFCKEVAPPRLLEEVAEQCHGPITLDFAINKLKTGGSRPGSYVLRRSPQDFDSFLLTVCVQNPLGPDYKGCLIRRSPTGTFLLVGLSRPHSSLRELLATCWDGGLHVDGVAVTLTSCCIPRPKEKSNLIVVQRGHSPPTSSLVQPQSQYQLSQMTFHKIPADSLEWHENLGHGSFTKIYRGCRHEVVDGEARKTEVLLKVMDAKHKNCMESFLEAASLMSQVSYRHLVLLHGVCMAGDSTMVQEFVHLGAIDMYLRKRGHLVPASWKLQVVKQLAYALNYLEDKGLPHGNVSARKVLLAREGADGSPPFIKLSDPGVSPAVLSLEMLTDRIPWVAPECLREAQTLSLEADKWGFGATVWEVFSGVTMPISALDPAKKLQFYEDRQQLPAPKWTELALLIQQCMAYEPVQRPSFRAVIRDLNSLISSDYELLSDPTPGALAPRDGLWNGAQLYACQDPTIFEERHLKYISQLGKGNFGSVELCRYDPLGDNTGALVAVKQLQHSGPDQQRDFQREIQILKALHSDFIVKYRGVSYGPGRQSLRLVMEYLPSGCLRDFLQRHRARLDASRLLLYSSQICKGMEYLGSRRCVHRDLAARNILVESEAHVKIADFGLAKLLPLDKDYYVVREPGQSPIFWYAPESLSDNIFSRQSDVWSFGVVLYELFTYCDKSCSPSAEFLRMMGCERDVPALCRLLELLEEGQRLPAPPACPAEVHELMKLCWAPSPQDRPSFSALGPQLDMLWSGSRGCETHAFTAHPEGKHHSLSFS
Sequence of purified recombinant human JAK1 protein (P23458 whole entry): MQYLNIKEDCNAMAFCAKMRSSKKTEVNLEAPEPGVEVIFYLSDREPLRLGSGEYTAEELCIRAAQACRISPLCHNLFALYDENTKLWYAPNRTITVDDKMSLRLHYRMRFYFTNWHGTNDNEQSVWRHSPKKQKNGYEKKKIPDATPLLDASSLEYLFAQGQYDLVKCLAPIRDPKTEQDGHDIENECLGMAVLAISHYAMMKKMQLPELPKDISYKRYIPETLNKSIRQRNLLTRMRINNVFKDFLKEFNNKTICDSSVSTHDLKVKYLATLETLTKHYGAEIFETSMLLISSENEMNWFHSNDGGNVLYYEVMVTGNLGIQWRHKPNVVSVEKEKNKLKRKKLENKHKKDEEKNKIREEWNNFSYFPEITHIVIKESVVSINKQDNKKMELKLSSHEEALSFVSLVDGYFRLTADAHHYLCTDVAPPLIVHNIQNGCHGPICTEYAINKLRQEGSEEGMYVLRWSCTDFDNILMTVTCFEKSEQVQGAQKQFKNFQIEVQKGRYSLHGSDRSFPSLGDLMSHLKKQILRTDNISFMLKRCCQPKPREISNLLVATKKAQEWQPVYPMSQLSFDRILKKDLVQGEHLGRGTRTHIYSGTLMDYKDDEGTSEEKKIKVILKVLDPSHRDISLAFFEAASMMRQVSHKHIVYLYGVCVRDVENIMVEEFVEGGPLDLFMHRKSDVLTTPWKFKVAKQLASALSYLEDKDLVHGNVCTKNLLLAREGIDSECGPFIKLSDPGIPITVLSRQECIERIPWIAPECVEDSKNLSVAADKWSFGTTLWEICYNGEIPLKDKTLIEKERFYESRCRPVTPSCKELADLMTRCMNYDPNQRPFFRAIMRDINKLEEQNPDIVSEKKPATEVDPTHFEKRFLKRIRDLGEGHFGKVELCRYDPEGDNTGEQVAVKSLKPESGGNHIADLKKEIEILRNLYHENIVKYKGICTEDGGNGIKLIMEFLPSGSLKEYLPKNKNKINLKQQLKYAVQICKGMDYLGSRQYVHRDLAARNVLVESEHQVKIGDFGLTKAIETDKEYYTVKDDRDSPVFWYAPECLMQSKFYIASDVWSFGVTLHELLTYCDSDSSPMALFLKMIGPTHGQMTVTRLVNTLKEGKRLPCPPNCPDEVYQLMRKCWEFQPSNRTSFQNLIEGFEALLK
Sequence of purified recombinant human JAK2 protein (O60674 whole entry): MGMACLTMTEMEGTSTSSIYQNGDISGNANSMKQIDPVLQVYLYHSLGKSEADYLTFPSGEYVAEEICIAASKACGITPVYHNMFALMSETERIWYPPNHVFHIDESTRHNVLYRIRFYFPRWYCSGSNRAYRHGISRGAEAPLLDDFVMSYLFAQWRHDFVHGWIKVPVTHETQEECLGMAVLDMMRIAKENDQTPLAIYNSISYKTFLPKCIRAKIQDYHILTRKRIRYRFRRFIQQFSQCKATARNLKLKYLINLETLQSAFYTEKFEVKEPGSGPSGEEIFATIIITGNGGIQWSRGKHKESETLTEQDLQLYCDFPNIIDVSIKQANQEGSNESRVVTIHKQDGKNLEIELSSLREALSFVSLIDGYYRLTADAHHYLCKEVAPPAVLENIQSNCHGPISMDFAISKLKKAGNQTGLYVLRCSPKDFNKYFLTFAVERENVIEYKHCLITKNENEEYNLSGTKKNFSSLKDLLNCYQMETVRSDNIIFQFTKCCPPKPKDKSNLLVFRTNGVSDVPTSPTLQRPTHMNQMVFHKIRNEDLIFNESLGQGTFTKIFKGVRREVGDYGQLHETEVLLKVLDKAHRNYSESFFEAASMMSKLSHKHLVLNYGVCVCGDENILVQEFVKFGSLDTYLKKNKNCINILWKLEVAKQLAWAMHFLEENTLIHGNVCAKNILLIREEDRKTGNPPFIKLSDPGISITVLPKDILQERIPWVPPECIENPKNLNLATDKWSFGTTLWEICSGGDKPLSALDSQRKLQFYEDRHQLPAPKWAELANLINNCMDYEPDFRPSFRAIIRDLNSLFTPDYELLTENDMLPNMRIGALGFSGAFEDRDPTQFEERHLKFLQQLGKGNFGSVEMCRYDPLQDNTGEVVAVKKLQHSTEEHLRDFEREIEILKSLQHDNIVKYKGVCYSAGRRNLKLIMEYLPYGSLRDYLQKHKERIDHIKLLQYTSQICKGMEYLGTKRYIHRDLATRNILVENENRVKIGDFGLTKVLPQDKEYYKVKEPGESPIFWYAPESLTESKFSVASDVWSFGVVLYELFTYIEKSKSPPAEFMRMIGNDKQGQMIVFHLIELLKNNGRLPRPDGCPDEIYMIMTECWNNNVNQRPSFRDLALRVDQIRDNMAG

Take `C=CC(=O)N[C@H]1CCC=C(c2ncnc3[nH]cc(-c4ccco4)c23)C1` [Compound 7, (S)—N-(3-(5-(Furan-2-yl)-7H-pyrrolo[2,3-d]pyrimidin-4-yl)cyclohex-3-en-1-yl)acrylamide]: the 50% inhibitory concentration (IC50) in experiment [1] is below 0.3 nM; in experiment [2], 18 nM; in experiment [3] it was 330 nM; in experiment [4], 440 nM.
For the compound `C=CC(=O)NC1C=C(c2ncnc3[nH]cc(-c4ccsc4)c23)CCC1` (stereo not drawn) [Compound 14, N-(3-(5-(Thiophen-3-yl)-7H-pyrrolo[2,3-d]pyrimidin-4-yl)cyclohex-2-en-1-yl)acrylamide], the IC50 was below 0.3 nM in experiment [1], 110 nM in experiment [2], 1200 nM in experiment [3] and 5600 nM in experiment [4].
Taken in the same sequence, the figures for `C=CC(=O)NC1CCC=C(c2ncnc3[nH]cc(-c4ccco4)c23)C1` (stereo not drawn) [Compound 5, N-(3-(5-(Furan-2-yl)-7H-pyrrolo[2,3-d]pyrimidin-4-yl)cyclohex-3-en-1-yl)acrylamide] were below 0.3 nM, 38 nM, 430 nM and 720 nM.
For the compound `C=CC(=O)N[C@H]1CCC[C@H](c2ncnc3[nH]cc(-c4ccco4)c23)C1` [Comparative Example 11(b), N-((1S,3S)-3-(5-(Furan-2-yl)-7H-pyrrolo[2,3-d]pyrimidin-4-yl)cyclohexyl)acrylamide, reference compound], the IC50 is 19 nM in experiment [1], 1940 nM in experiment [2], 880 nM in experiment [3] and above 10000 nM in experiment [4].
As to `C=CC(=O)Nc1cccc(-c2ncnc3[nH]cc(-c4ccccc4)c23)c1` [Comparative Example 12, N-(3-(5-Phenyl-7H-pyrrolo[2,3-d]pyrimidin-4-yl)phenyl)acrylamide, reference compound], the IC50 in experiment [1] is 0.09 nM; in experiment [2] it was 546 nM; in experiment [3], above 1000 nM; in experiment [4] it was above 1000 nM. In addition, in experiment [5], the “suppression of IFN-γ production in vivo” value was “did not exhibit such a significant IFN-γ production-suppressing action”.
For `C=CC(=O)NC1CC=C(c2ncnc3[nH]cc(-c4ccccc4)c23)C1` (stereo not drawn) [Compound 9, N-(3-(5-Phenyl-7H-pyrrolo[2,3-d]pyrimidin-4-yl)cyclopent-3-en-1-yl)acrylamide], the IC50 in experiment [1] is below 0.3 nM; in experiment [2], 99 nM; in experiment [3] it was 880 nM; in experiment [4], 2100 nM.
In the case of `C=CC(=O)NC1CC=C(c2ncnc3[nH]cc(-c4ccco4)c23)C1` (stereo not drawn) [Compound 8, N-(3-(5-(Furan-2-yl)-7H-pyrrolo[2,3-d]pyrimidin-4-yl)cyclopent-3-en-1-yl)acrylamide], the half-maximal inhibitory concentration (IC50) in experiment [1] was below 0.3 nM; in experiment [2], 83 nM; in experiment [3] it was 430 nM; in experiment [4], 1400 nM.
The corresponding values for `C=CC(=O)NC1CCC=C(c2ncnc3[nH]cc(-c4cccs4)c23)C1` (stereo not drawn) [Compound 2, N-(3-(5-(Thiophen-2-yl)-7H-pyrrolo[2,3-d]pyrimidin-4-yl)cyclohex-3-en-1-yl)acrylamide] are below 0.3 nM, 110 nM, 480 nM and 900 nM.
